Ends that are not written are not given here.
Columns and labels:
[1] = tested on: antibodies in sera from HCV-seropositive donors; test: ELISA with HCV antibody-positive sera (biotinylated peptides on streptavidin- or avidin-coated plates, unbiotinylated peptides coated directly); assay type: binding, human; settings: for PEPTIDE ELISA (O.D.): Table 12, biotinylated 20-mers; for optical density (450 nm): Table 4E, 20-fold dilution
Description: (§1) Where peptides were to be coated directly, stock solutions of the peptides were diluted in sodium carbonate buffer, pH 9.6 and used to coat polystyrene microtiter plates at a peptide concentration of 2 to 5 micrograms per milliliter for 1 hour at 37° C.
(§2) In cases where biotinylated peptides were to be evaluated, plates were first coated with streptavidin in sodium carbonate buffer, pH 9.6 at a concentration of 3 micrograms per milliliter for 1 hour at 37° C. The plates were then washed to remove excess, unbound protein. A working solution of the biotinylated peptide at 1 microgram per milliliter in sodium carbonate buffer was then added to the wells of the microtiter plate and incubated for 1 hours at 37° C.
(§3) Once the plates had been coated with antigen, any remaining free binding sites on the plastic were blocked with casein. After washing, a dilution of the appropriate antisera, usually 1:100, was added to the wells of the plates and incubated for 1 hour at 37° C.
(§4) After washing to remove unbound material, specific antibody binding was detected by incubating the plates with goat anti-human immunoglobulin antibodies conjugated to the enzyme horseradish peroxidase. Following removal of unbound conjugate by washing, a solution containing H2O2 and 3,3′,5,5′-tetramethylbenzidine was added.
(§5) Reactions were stopped after a suitable interval by addition of sulfuric acid. […] Absorbance measurements were made at a wavelength of 450 nanometers and all data are expressed as an optical density value at this wavelength.
The unbiotinylated peptides were adsorbed onto the wells of polystyrene microtiter plates at a concentration of 3 micrograms per milliliter.
The biotinylated peptides were bound at a concentration of 1 microgram per milliliter to streptavidin-coated microtiter plates. Sera known to contain antibodies to these peptides were used for the evaluation and were tested at a 20-fold dilution.
To investigate further the enhanced antibody recognition of biotinylated HCV peptides bound to streptavidin or avidin as compared to direct adsorption on plastic, the influence of peptide coating concentration was investigated. Three peptides (HCV peptides II, XI, and XVI) were coated in concentrations ranging from 10 nanograms per milliliter to 3 micrograms per milliliter in a volume of 200 microliters per microtiter plate well. For direct coating, the unbiotinylated versions of these peptides were used. The biotinylated versions of these peptides were used to coat wells to which streptavidin had previously been adsorbed. Sera known to contain antibodies to these peptides were used at a dilution of 1 to 100 to evaluate the magnitude of antibody binding.
(§6) Unbiotinylated HCV peptide I was coated directly onto the wells of a polystyrene ELISA plate at a concentration of 3 micrograms per milliliter in sodium carbonate buffer, pH 9.6. Biotinylated HCV peptide I was bound to streptavidin-coated wells using a stock solution containing the peptide at a concentration of 1 microgram per milliliter. The resulting plates were then incubated in parallel with a panel of sera from HCV-seropositive donors. […] Two of the sera (8326 and 8244) recognize the biotinylated version of this peptide far better than the unbiotinylated version. The specificity of the antibody reaction is also reflected by the low optical density values obtained for 5 serum samples from uninfected donors (F88, F89, F76, F136, and F6).
To determine how well biotinylated peptides would function in a mixture when bound to streptavidin- or avidin-coated plates, two mixtures were made of the N-terminally biotinylated versions of the HIV-1 peptides TM-HIV-1 (hereabove referred to as 1a.1) and V3-nm (hereabove referred to as 1b.4), the HIV-2 peptide TM-HIV-2 (hereabove referred to as 2a), and the hepatitis C virus peptides II, IX, and XVIII. […]

[2] = ELISA with seronegative / negative control sera (specificity); assay type: binding, human; settings: Table 4E; negative serum
Description: as §1, §2, §3, §4, §5, §6
To determine how well biotinylated peptides would function in a mixture when bound to streptavidin- or avidin-coated plates, two mixtures were made of the N-terminally biotinylated versions of the HIV-1 peptides TM-HIV-1 (hereabove referred to as 1a.1) and V3-nm (hereabove referred to as 1b.4), the HIV-2 peptide TM-HIV-2 (hereabove referred to as 2a), and the hepatitis C virus peptides II, IX, and XVIII. Mixture A contained each of the six biotinylated peptides at a concentration of 1 microgram per milliliter (6 micrograms per milliliter peptide, total) while in mixture B, each peptide was present at a concentration of 0.1 microgram per milliliter (0.6 microgram per milliliter peptide, total). The individual peptides were coated at a concentration of 1 microgram per milliliter. For purposes of comparison, mixtures A and B were also coated directly onto the wells of a microtiter plate. Samples from HIV-1, HIV-2, and HCV-seropositive donors were tested and compared to sera from seronegative blood donors. A cut-off absorbance value of 0.250 was used to determine whether a reaction was positive or negative. Absorbance values equal or greater than 0.250 were considered positive while absorbance values below this value were considered negative.

Substance | PEPTIDE ELISA (O.D.) ([1]; serum 0843) | PEPTIDE ELISA (O.D.) ([1]; serum 8240) | PEPTIDE ELISA (O.D.) ([1]; serum 8241) | PEPTIDE ELISA (O.D.) ([1]; serum 8242) | PEPTIDE ELISA (O.D.) ([1]; serum 8332) | PEPTIDE ELISA (O.D.) ([1]; serum 8339) | PEPTIDE ELISA (O.D.) ([1]; serum 8350) | PEPTIDE ELISA (O.D.) ([1]; serum 8377) | PEPTIDE ELISA (O.D.) ([1]; serum 8378) | PEPTIDE ELISA (O.D.) ([1]; serum 8388) | optical density (450 nm) ([1]; serum 8272) | optical density (450 nm) ([1]; serum 8273) | optical density (450 nm) ([1]; serum 8274) | optical density (450 nm) ([1]; serum 8275) | optical density (450 nm) ([1]; serum 8276) | optical density (450 nm) ([1]; serum 8277) | optical density (450 nm) ([1]; serum 8278) | optical density (450 nm) ([1]; serum 8284) | optical density (450 nm) [2]
Core-7: biotinylated 20-mer, HCV core aa 37-56, SEQ ID NO:41 | 1.251 | 1.529 | 0.448 | 0.632 | 1.387 | 0.166 | 0.357 | 0.221 | 1.089 | 0.970 | – | – | – | – | – | – | – | – | –
TRKTSERSQPRGRRQPIPKV | 1.378 | 2.021 | 0.274 | 2.315 | 1.455 | 2.598 | 0.685 | 0.076 | 1.228 | 2.162 | 1.220 | 1.026 | 2.662 | 1.724 | 2.616 | 1.796 | 1.746 | 0.757 | 0.070
NS5-25: biotinylated 20-mer, HCV NS5 aa 2263-2282, SEQ ID NO:59 | 0.062 | 0.054 | 0.050 | 0.260 | 0.047 | 1.495 | 0.069 | 1.092 | 0.279 | 0.055 | – | – | – | – | – | – | – | – | –
